Test results taken from patent US20250019386A1, “PYRROLO[1,2-b]-2-PYRIDAZINONE COMPOUNDS AS 5-HT4 RECEPTOR AGONISTS” (SUVEN LIFE SCIENCES LIMITED, priority 2022, published 2025).

Tests used:
5-HT4 receptors = 5-HT4 receptors (Homo sapiens (Human), UniProt Q13639); assay: Determination of EC50 values for 5-HT4 receptor (pCRE-Luc reporter assay); assay type: cell-based; settings: CHO cells expressing recombinant human 5-HT4 receptor and pCRE-Luc reporter; 4 h incubation; luciferase activity
Method: A stable CHO cell line expressing recombinant human 5-HT4 receptor and pCRE-Luc reporter system was used for cell-based assay. The assay offers a non-radioactive based approach to determine binding of a compound to GPCRs. In this specific assay, the level of intracellular cyclic AMP, which is modulated by activation, or inhibition of the receptor is measured. The recombinant cells harbor luciferase reporter gene under the control of cAMP response element.
The above cells were grown in 96 well clear bottom white plates in Ham's F12 medium containing 10% fetal bovine serum. Prior to the addition of compounds or standard agonist, cells were serum starved overnight. Increasing concentrations of test compounds were added to the cells in OptiMEM medium. The incubation was continued in CO2 incubator at 37° C. with 5% CO2 conditions for 4 h. Medium was removed and cells were washed with phosphate buffered saline. The cells were lysed and luciferase activity was measured in a Luminometer. Concentration-response data was generated using the luciferase assay, following incubation of cells with receptor ligands, were analyzed by subtracting basal levels (i.e. with medium alone), then normalizing values as a percentage of controls (endogenous agonist serotonin (10 μM)). […] EC50 values of the compounds were defined as the concentration required in stimulating the luciferase activity by 50%.

gastric emptying = assay: Effect on gastric emptying in Beagle dogs (clonidine model of gastroparesis); assay type: in vivo; settings: 3 and 10 mg/kg oral
Method: Six beagle dogs were used for the study in a crossover manner such that all 6 dogs received all the treatments. Each dog was placed in an individual cage after overnight fasting and water removed. To provide a model of gastroparesis, clonidine (α2 adrenergic agonist) at a dose of 10 μg/kg was injected subcutaneously 30 min before test meal administration.
Dogs were orally administered test compound of example 2 at 1, 3 and 10 mg/kg or vehicle or cisapride at 10 mg/kg immediately before the administration of clonidine. The test meal (10 mL/kg), made up of commercially available semi-solid food with 10 mg/kg of acetaminophen (APAP), was provided 30 min after clonidine injection. Blood samples were collected from cephalic vein at 0, 0.25, 0.5, 0.75, 1.0, 1.25, 1.5 & 2.0 h after test meal administration and then plasma was separated by centrifugation. Plasma concentrations of APAP were determined by in-house methods using LC-MS/MS.

5-HT4 receptors, sequence (Q13639 whole entry): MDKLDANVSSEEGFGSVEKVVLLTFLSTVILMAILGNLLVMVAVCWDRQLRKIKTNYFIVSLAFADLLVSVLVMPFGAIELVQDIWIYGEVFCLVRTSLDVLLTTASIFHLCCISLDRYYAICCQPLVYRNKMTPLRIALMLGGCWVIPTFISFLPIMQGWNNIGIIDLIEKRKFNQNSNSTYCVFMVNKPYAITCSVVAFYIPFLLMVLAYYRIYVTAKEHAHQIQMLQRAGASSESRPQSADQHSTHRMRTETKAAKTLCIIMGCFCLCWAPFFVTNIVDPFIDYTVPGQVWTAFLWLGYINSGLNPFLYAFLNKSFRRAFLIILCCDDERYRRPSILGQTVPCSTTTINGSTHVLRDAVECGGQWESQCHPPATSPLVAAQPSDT

## CC(C)n1c(=O)c(C(=O)NC2CC3CCC(C2)N3C[C@@H](O)CN(C)S(C)(=O)=O)cc2cccn21.O=C(O)C(O)C(O)C(=O)O (single isomer, unassigned) [Example 2]
5-HT4 receptors
  EC50: 4.1 nM
Gastric emptying; clonidine-treated (10 μg/kg s.c.) beagle dogs, plasma APAP
  gastric emptying: enhanced the gastric emptying in dose dependent manner
Gastric emptying; clonidine-treated beagle dogs
  gastric motor activity: increased gastric motor activity
